Measurements reported in patent US20250313553A1, “ANNULATED 2-AMINO-3-CYANO THIOPHENES AND DERIVATIVES FOR THE TREATMENT OF CANCER” (Boehringer Ingelheim Int'l GmbH Corp., priority 2021, published 2025).

What was measured:
AsPC-1 cells = assay: AsPC-1 CTG proliferation assay (120 h); format: cell-based; details: Homo sapiens, ASPC1, pancreatic cancer, G12D
Description: The CTG assay is designed to measure quantitatively the proliferation of AsPC-1 cells (ATCC […]), using the CellTiter Glow Assay Kit (Promega G7571). Cells are grown in RPMI medium (ATCC) supplemented with Fetal Calf Serum (Life Technologies, Gibco BRL, Cat. No. 10270-106). On “day 0” 2000 AsPC-1 cells are seeded in 60 μL RPMI ATCC+10% FCS+Penstrep in a 384-well plate, flat and clear bottom (Greiner, PNr. 781091). Cells are then incubated in the plates at 37° C. in a CO2 incubator overnight. On day 1, compounds (10 mM stock in DMSO) are added with the ECHO acoustic liquid handler system (Beckman Coulter), including DMSO controls. Plates are incubated for 120 h, and cell viability is measured using CellTiter-Glo luminescent cell viability reagent (Promega product code G7570). Viability (stated as percent of control) is defined as relative luminescence units RLU of each well divided by the RLU of cells in DMSO controls. IC50 values are determined from viability measurements by non-linear regression using a four-parameter model.

SAS cells = assay: SAS CTG proliferation assay (120 h); format: cell-based; details: HNSCC, wt amplified
Description: (§1) SAS cells (JCRB0260) are dispensed into 384-well plates, flat and clear bottom (Greiner, PNr. 781091) at a density of 300 cells per well in 60 μL DMEM:F12 (Gibco 31330-038)+10% Fetal Calf Serum (HyClone, PNr.: SH30084.03) and incubated at 37° C. in a CO2 incubator overnight. The next day, compounds (10 mM stock in DMSO) are added with the ECHO acoustic liquid handler system (Beckman Coulter), including DMSO controls. Plates are incubated for 120 h, and cell viability is measured using CellTiter-Glo luminescent cell viability reagent (Promega product code G7570). Viability (stated as percent of control) is defined as relative luminescence units RLU of each well divided by the RLU of cells in DMSO controls. IC50 values are determined from viability measurements by non-linear regression using a four-parameter model.

SK-CO-1 cells = assay: SK-CO-1 CTG proliferation assay (120 h); format: cell-based; details: Homo sapiens, CRC, G12V
Description: as §1, with “SK-CO-1 cells (ATCC” for “SAS cells (JCRB0260)”, “SK-CO-1 cells (ATCC HTB-39) are dispensed” for “SAS cells (JCRB0260) are dispensed”, “density of 500 cells per” for “density of 300 cells per”, “60 μL EMEM (Sigma M5650)+10% Fetal Calf” for “60 μL DMEM:F12 (Gibco 31330-038)+10% Fetal Calf”

LOVO cells = assay: LOVO CTG proliferation assay (120 h); format: cell-based; details: Homo sapiens, CRC, G13D
Description: as §1, with “LOVO cells (ATCC” for “SAS cells (JCRB0260)”, “LOVO cells (ATCC CCL-229) are dispensed” for “SAS cells (JCRB0260) are dispensed”, “density of 1000 cells per” for “density of 300 cells per”, “60 μL DMEM (Sigma D6429)+10% Fetal Calf” for “60 μL DMEM:F12 (Gibco 31330-038)+10% Fetal Calf”

[1] = Plasma protein binding assay (PPB), equilibrium dialysis; format: in vitro ADME; details: bovine, 10% FCS in PBS, read-out: PPB 10% FCS (% fu)
Description: Binding of test compounds to plasma was determined using equilibrium dialysis (ED) and quantitative mass spectrometry interfaced with liquid chromatography (LC-MS). In brief, ED was performed with dialysis devices consisting of two chambers separated by a semipermeable membrane with a molecular weight cut-off of 5-10 kg/mol. One chamber was filled with 10% FCS in PBS containing 1-10 μmol/L test compound and the other chamber was filled with phosphate-buffer saline (PBS) with or without dextran. The dialysis chamber was incubated for 3-5 hours at 37° C. After incubation, protein was precipitated from aliquots of each chamber and the concentration of test compound in the supernatant of the plasma-containing compartment (cserum) and of the buffer-containing compartment (cbuffer) was determined by LC-MS. The fraction of unbound test compound (not bound to plasma) (fu) was calculated according to the following equation: […]

NCI-H358 cells = assay: NCI-H358 CTG proliferation assay (120 h), assay 1; format: cell-based; details: Homo sapiens, 96 well, 2000 cells per well
Description: NCI-H358 cells (ATCC No. CRL-5807) are dispensed into white bottom opaque 96 well plates (Perkin Elmer cat no. 5680) at a density of 2000 cells per well in 100 μL RPMI-1640 ATCC-Formulation (Gibco #A10491)+10% FCS (fetal calf serum) (assay 1) or into black 384-well plates, flat and clear bottom (Greiner, PNr. 781091) at a density of 200 cells per well in 60 μl RPMI-1640 ATCC-Formulation (Gibco #A10491)+10% FCS (fetal calf serum) (assay 2). […] Compounds (10 mM stock in DMSO) are added at logarithmic dose series using the HP Digital Dispenser D300 (Tecan) (assay 1) or the ECHO acoustic liquid handler system (Beckman Coulter) (assay 2), normalizing for added DMSO and including DMSO controls. For the T0 time point measurement, untreated cells are analyzed at the time of compound addition. Plates are incubated for 120 h, and cell viability is measured using CellTiter-Glo luminescent cell viability reagent (Promega product code G7570). Viability (stated as percent of control) is defined as relative luminescence units RLU of each well divided by the RLU of cells in DMSO controls. IC50 values are determined from viability measurements by non-linear regression using a four-parameter model.

SMILES	IC50 (AsPC-1 cells) [µM]	IC50 (SK-CO-1 cells) [µM]	IC50 (LOVO cells) [µM]	fraction unbound [1]	IC50 (NCI-H358 cells) [µM]	IC50 (SAS cells) [µM]
C[C@H](Oc1cccc(-c2noc([C@@]3(C)CCCc4sc(N)c(C#N)c43)n2)n1)[C@@H]1CCCN1C [Example V-8]	3.95	6.65	1.43	0.51	–	3.1
C[C@H](Oc1ccnc(-c2noc([C@@]3(C)CCCc4sc(N)c(C#N)c43)n2)n1)[C@@H]1CCCN1C [Example V-11]	3.7	0.737	0.193	0.61	–	3.33

Now from value to compound, other results behind:

IC50 (AsPC-1 cells) [µM]	IC50 (SK-CO-1 cells) [µM]	IC50 (LOVO cells) [µM]	fraction unbound [1]	IC50 (NCI-H358 cells) [µM]	SMILES	IC50 (SAS cells) [µM]
7.24	4.8	8.47	0.21	–	C[C@H]1CN(C)CCN1c1cccc(-c2noc([C@@]3(C)CCCc4sc(N)c(C#N)c43)n2)n1 [Example V-1]	8.02
–	–	–	–	0.698	CC(C)N1CCCN(c2nccc(-c3noc([C@@]4(C)CCCc5sc(N)c(C#N)c54)n3)n2)[C@@H](C)C1 [Example V-9]	–
–	–	–	–	5.41	C[C@H](Oc1nccc(-c2noc([C@@]3(C)CCCc4sc(N)c(C#N)c43)n2)n1)[C@@H]1CCCN1C [Example V-10]	–
